Test results as given in ChEMBL document CHEMBL3046265, “Synthesis, evaluation of antimicrobial activity, and molecular modeling of novel 2-((4-(2H-benzo[d] [1,2,3] triazol-2-yl)piperidin-1-yl)methyl)-5-substituted phenyl-1,3,4-oxadiazoles” (2013).

Experiments:
Assay type in all cases: functional
Conditions in all cases: read-out: IZ
Proteus vulgaris [1] = assay: Antibacterial activity against Proteus vulgaris at 900 ug/ml after overnight incubation
Escherichia coli [2] = assay: Antibacterial activity against Escherichia coli at 600 ug/ml after overnight incubation
Escherichia coli [3] = assay: Antibacterial activity against Escherichia coli at 900 ug/ml after overnight incubation
Proteus vulgaris [4] = assay: Antibacterial activity against Proteus vulgaris at 600 ug/ml after overnight incubation
Colletotrichum falcatum [5] = assay: Antifungal activity against Glomerella tucumanensis at 300 ug/ml after 48 hr
Fusarium oxysporum [6] = assay: Antifungal activity against Fusarium oxysporum at 1200 ug/ml after 48 hr
Fusarium oxysporum [7] = assay: Antifungal activity against Fusarium oxysporum at 900 ug/ml after 48 hr
Fusarium oxysporum [8] = assay: Antifungal activity against Fusarium oxysporum at 600 ug/ml after 48 hr
Fusarium oxysporum [9] = assay: Antifungal activity against Fusarium oxysporum at 300 ug/ml after 48 hr
Candida albicans [10] = assay: Antifungal activity against Candida albicans at 1200 ug/ml after 48 hr
Candida albicans [11] = assay: Antifungal activity against Candida albicans at 900 ug/ml after 48 hr
Candida albicans [12] = assay: Antifungal activity against Candida albicans at 600 ug/ml after 48 hr
Candida albicans [13] = assay: Antifungal activity against Candida albicans at 300 ug/ml after 48 hr
Streptococcus pyogenes [14] = assay: Antibacterial activity against Streptococcus pyogenes at 900 ug/ml after overnight incubation
Streptococcus pyogenes [15] = assay: Antibacterial activity against Streptococcus pyogenes at 600 ug/ml after overnight incubation
Staphylococcus aureus [16] = assay: Antibacterial activity against Staphylococcus aureus at 900 ug/ml after overnight incubation
Staphylococcus aureus [17] = assay: Antibacterial activity against Staphylococcus aureus at 600 ug/ml after overnight incubation
Bacillus pumilus [18] = assay: Antibacterial activity against Bacillus pumilus at 900 ug/ml after overnight incubation
Bacillus pumilus [19] = assay: Antibacterial activity against Bacillus pumilus at 600 ug/ml after overnight incubation
Priestia megaterium [20] = assay: Antibacterial activity against Bacillus megaterium at 900 ug/ml after overnight incubation
Priestia megaterium [21] = assay: Antibacterial activity against Bacillus megaterium at 600 ug/ml after overnight incubation
Bacillus subtilis [22] = assay: Antibacterial activity against Bacillus subtilis at 900 ug/ml after overnight incubation
Bacillus subtilis [23] = assay: Antibacterial activity against Bacillus subtilis at 600 ug/ml after overnight incubation
Klebsiella aerogenes [24] = assay: Antibacterial activity against Enterobacter aerogenes at 900 ug/ml after overnight incubation
Klebsiella aerogenes [25] = assay: Antibacterial activity against Enterobacter aerogenes at 600 ug/ml after overnight incubation
Klebsiella pneumoniae [26] = assay: Antibacterial activity against Klebsiella pneumoniae at 900 ug/ml after overnight incubation
Klebsiella pneumoniae [27] = assay: Antibacterial activity against Klebsiella pneumoniae at 600 ug/ml after overnight incubation
Enterococcus faecalis [28] = assay: Antibacterial activity against Enterococcus faecalis at 900 ug/ml after overnight incubation
Enterococcus faecalis [29] = assay: Antibacterial activity against Enterococcus faecalis at 600 ug/ml after overnight incubation
Exserohilum rostratum [30] = assay: Antifungal activity against Setosphaeria rostrata at 1200 ug/ml after 48 hr
Exserohilum rostratum [31] = assay: Antifungal activity against Setosphaeria rostrata at 900 ug/ml after 48 hr
Exserohilum rostratum [32] = assay: Antifungal activity against Setosphaeria rostrata at 600 ug/ml after 48 hr
Exserohilum rostratum [33] = assay: Antifungal activity against Setosphaeria rostrata at 300 ug/ml after 48 hr
Colletotrichum falcatum [34] = assay: Antifungal activity against Glomerella tucumanensis at 1200 ug/ml after 48 hr
Colletotrichum falcatum [35] = assay: Antifungal activity against Glomerella tucumanensis at 900 ug/ml after 48 hr
Colletotrichum falcatum [36] = assay: Antifungal activity against Glomerella tucumanensis at 600 ug/ml after 48 hr

SMILES: O=[N+]([O-])c1ccc(-c2nnc(CN3CCC(n4nc5ccccc5n4)CC3)o2)cc1Cl
- zone of inhibition at 900 µg/mL (Proteus vulgaris [1]): 9.56 mm
- zone of inhibition at 600 µg/mL (Escherichia coli [2]): 4.82 mm
- zone of inhibition at 900 µg/mL (Escherichia coli [3]): 9.56 mm
- zone of inhibition at 600 µg/mL (Proteus vulgaris [4]): 4.85 mm
- zone of inhibition at 300 µg/mL (Colletotrichum falcatum [5]): 4.57 mm
- zone of inhibition at 1200 µg/mL (Fusarium oxysporum [6]): 31.4 mm
- zone of inhibition at 900 µg/mL (Fusarium oxysporum [7]): 15.2 mm
- zone of inhibition at 600 µg/mL (Fusarium oxysporum [8]): 8.8 mm
- zone of inhibition at 300 µg/mL (Fusarium oxysporum [9]): 4.45 mm
- zone of inhibition at 1200 µg/mL (Candida albicans [10]): 23.1 mm
- zone of inhibition at 900 µg/mL (Candida albicans [11]): 12.9 mm
- zone of inhibition at 600 µg/mL (Candida albicans [12]): 6.25 mm
- zone of inhibition at 300 µg/mL (Candida albicans [13]): 2.87 mm
- zone of inhibition at 900 µg/mL (Streptococcus pyogenes [14]): 7.05 mm
- zone of inhibition at 600 µg/mL (Streptococcus pyogenes [15]): 3.35 mm
- zone of inhibition at 900 µg/mL (Staphylococcus aureus [16]): 10.2 mm
- zone of inhibition at 600 µg/mL (Staphylococcus aureus [17]): 4.89 mm
- zone of inhibition at 900 µg/mL (Bacillus pumilus [18]): 7.25 mm
- zone of inhibition at 600 µg/mL (Bacillus pumilus [19]): 3.46 mm
- zone of inhibition at 900 µg/mL (Priestia megaterium [20]): 12.3 mm
- zone of inhibition at 600 µg/mL (Priestia megaterium [21]): 5.62 mm
- zone of inhibition at 900 µg/mL (Bacillus subtilis [22]): 12 mm
- zone of inhibition at 600 µg/mL (Bacillus subtilis [23]): 5.89 mm
- zone of inhibition at 900 µg/mL (Klebsiella aerogenes [24]): 12.4 mm
- zone of inhibition at 600 µg/mL (Klebsiella aerogenes [25]): 6.28 mm
- zone of inhibition at 900 µg/mL (Klebsiella pneumoniae [26]): 6.25 mm
- zone of inhibition at 600 µg/mL (Klebsiella pneumoniae [27]): 3.89 mm
- zone of inhibition at 900 µg/mL (Enterococcus faecalis [28]): 7.25 mm
- zone of inhibition at 600 µg/mL (Enterococcus faecalis [29]): 4.52 mm
- zone of inhibition at 1200 µg/mL (Exserohilum rostratum [30]): 23 mm
- zone of inhibition at 900 µg/mL (Exserohilum rostratum [31]): 11 mm
- zone of inhibition at 600 µg/mL (Exserohilum rostratum [32]): 5.56 mm
- zone of inhibition at 300 µg/mL (Exserohilum rostratum [33]): 2.95 mm
- zone of inhibition at 1200 µg/mL (Colletotrichum falcatum [34]): 33.2 mm
- zone of inhibition at 900 µg/mL (Colletotrichum falcatum [35]): 17.8 mm
- zone of inhibition at 600 µg/mL (Colletotrichum falcatum [36]): 9.86 mm

SMILES: c1ccc(-c2nnc(CN3CCC(n4nc5ccccc5n4)CC3)o2)cc1
- zone of inhibition at 900 µg/mL (Proteus vulgaris [1]): 7.5 mm
- zone of inhibition at 600 µg/mL (Escherichia coli [2]): 2.24 mm
- zone of inhibition at 900 µg/mL (Escherichia coli [3]): 4.85 mm
- zone of inhibition at 600 µg/mL (Proteus vulgaris [4]): 3.8 mm
- zone of inhibition at 300 µg/mL (Colletotrichum falcatum [5]): 3.56 mm
- zone of inhibition at 1200 µg/mL (Fusarium oxysporum [6]): 21.3 mm
- zone of inhibition at 900 µg/mL (Fusarium oxysporum [7]): 10.2 mm
- zone of inhibition at 600 µg/mL (Fusarium oxysporum [8]): 4.85 mm
- zone of inhibition at 300 µg/mL (Fusarium oxysporum [9]): 2.25 mm
- zone of inhibition at 1200 µg/mL (Candida albicans [10]): 24.2 mm
- zone of inhibition at 900 µg/mL (Candida albicans [11]): 13.2 mm
- zone of inhibition at 600 µg/mL (Candida albicans [12]): 6.05 mm
- zone of inhibition at 300 µg/mL (Candida albicans [13]): 3.12 mm
- zone of inhibition at 900 µg/mL (Streptococcus pyogenes [14]): 8.25 mm
- zone of inhibition at 600 µg/mL (Streptococcus pyogenes [15]): 4.01 mm
- zone of inhibition at 900 µg/mL (Staphylococcus aureus [16]): 8.25 mm
- zone of inhibition at 600 µg/mL (Staphylococcus aureus [17]): 3.26 mm
- zone of inhibition at 900 µg/mL (Bacillus pumilus [18]): 8.65 mm
- zone of inhibition at 600 µg/mL (Bacillus pumilus [19]): 4.25 mm
- zone of inhibition at 900 µg/mL (Priestia megaterium [20]): 11.4 mm
- zone of inhibition at 600 µg/mL (Priestia megaterium [21]): 5.82 mm
- zone of inhibition at 900 µg/mL (Bacillus subtilis [22]): 5.45 mm
- zone of inhibition at 600 µg/mL (Bacillus subtilis [23]): 2.65 mm
- zone of inhibition at 900 µg/mL (Klebsiella aerogenes [24]): 11.2 mm
- zone of inhibition at 600 µg/mL (Klebsiella aerogenes [25]): 5.82 mm
- zone of inhibition at 900 µg/mL (Klebsiella pneumoniae [26]): 6.56 mm
- zone of inhibition at 600 µg/mL (Klebsiella pneumoniae [27]): 3.35 mm
- zone of inhibition at 900 µg/mL (Enterococcus faecalis [28]): 9.25 mm
- zone of inhibition at 600 µg/mL (Enterococcus faecalis [29]): 4.25 mm
- zone of inhibition at 1200 µg/mL (Exserohilum rostratum [30]): 24 mm
- zone of inhibition at 900 µg/mL (Exserohilum rostratum [31]): 11.8 mm
- zone of inhibition at 600 µg/mL (Exserohilum rostratum [32]): 6.25 mm
- zone of inhibition at 300 µg/mL (Exserohilum rostratum [33]): 3.15 mm
- zone of inhibition at 1200 µg/mL (Colletotrichum falcatum [34]): 27.9 mm
- zone of inhibition at 900 µg/mL (Colletotrichum falcatum [35]): 13.2 mm
- zone of inhibition at 600 µg/mL (Colletotrichum falcatum [36]): 7.26 mm

SMILES: CN[C@@H]1[C@H](O[C@H]2[C@H](O[C@H]3[C@H](O)[C@@H](O)[C@H](N=C(N)N)[C@@H](O)[C@@H]3N=C(N)N)O[C@@H](C)[C@]2(O)C=O)O[C@@H](CO)[C@H](O)[C@H]1O [STREPTOMYCIN]
- zone of inhibition at 900 µg/mL (Proteus vulgaris [1]): 16.1 mm
- zone of inhibition at 600 µg/mL (Escherichia coli [2]): 3.06 mm
- zone of inhibition at 900 µg/mL (Escherichia coli [3]): 6.14 mm
- zone of inhibition at 600 µg/mL (Proteus vulgaris [4]): 8.9 mm
- zone of inhibition at 900 µg/mL (Streptococcus pyogenes [14]): 16.5 mm
- zone of inhibition at 600 µg/mL (Streptococcus pyogenes [15]): 8.91 mm
- zone of inhibition at 900 µg/mL (Staphylococcus aureus [16]): 20 mm
- zone of inhibition at 600 µg/mL (Staphylococcus aureus [17]): 10.3 mm
- zone of inhibition at 900 µg/mL (Bacillus pumilus [18]): 14.5 mm
- zone of inhibition at 600 µg/mL (Bacillus pumilus [19]): 7.25 mm
- zone of inhibition at 900 µg/mL (Priestia megaterium [20]): 12.8 mm
- zone of inhibition at 600 µg/mL (Priestia megaterium [21]): 6.23 mm
- zone of inhibition at 900 µg/mL (Bacillus subtilis [22]): 16.2 mm
- zone of inhibition at 600 µg/mL (Bacillus subtilis [23]): 8.44 mm
- zone of inhibition at 900 µg/mL (Klebsiella aerogenes [24]): 8.76 mm
- zone of inhibition at 600 µg/mL (Klebsiella aerogenes [25]): 4.47 mm
- zone of inhibition at 900 µg/mL (Klebsiella pneumoniae [26]): 6.54 mm
- zone of inhibition at 600 µg/mL (Klebsiella pneumoniae [27]): 3.24 mm
- zone of inhibition at 900 µg/mL (Enterococcus faecalis [28]): 20.3 mm
- zone of inhibition at 600 µg/mL (Enterococcus faecalis [29]): 12.8 mm
